Results published in patent publication US8680091B2, “6-arylalkylamino-2,3,4,5-tetrahydro-1H-benzo[d]azepines as 5-HT2C receptor agonists” (Eli Lilly and Company, priority 2005, dated 2014).

Tests used:
[1] = system: Wistar rats; assay: Schedule-induced polydipsia; assay type: in vivo, rat
From the text: Schedule-Induced Polydipsia
Food-deprived rats exposed to intermittent presentations of food will drink amounts of water that are far in excess of their normal daily intake and in excess of their intake when given all of their food at one time (Falk J L. “Production of polydipsia in normal rats by an intermittent food schedule”, Science 133: 195-196, (1961)). This excessive behavior is persistent and has been used to model OCD.
Maintain Wistar rats on a food restricted diet (to maintain 85% free feeding weight), but with free access to water. Train the rats in a behavioral testing chamber to press a lever to receive a food pellet under a fixed interval schedule, such that the rats are rewarded with a 45 mg food pellet the first time they press a lever after a 120 second interval has elapsed. The fixed interval is then reset to 120 seconds and the process repeated. Thus, during a 90 min. test session, the rats can earn a maximum of 45 pellets. The behavioral chamber is also equipped with a water bottle that is weighed before and after the session to determine the amount of water consumed.
Administer test compounds on Tuesdays and Fridays. […] Compare the rates of lever pressing and water consumption for each animal's performance during sessions after test compound treatment with that animal's performance during control sessions, expressed as a percent of the control rate. […]

[2] = system: male NIH Swiss mice; assay: Nestlet shredding; assay type: in vivo, mouse; details: 30 min, rotorod for motor impairment
From the text: Mice naturally will construct nests of material available in their living environment. Since this behavior is obsessive in nature, it has been used to model OCD (Xia Li, Denise Morrow and Jeffrey M. Witkin, “Decreases in nestlet shredding of mice by serotonin uptake inhibitors: comparison with marble burying”, Psychopharmacology, submitted Jul. 14, 2003). House experimentally-naïve male, NIH Swiss mice (Harlan Sprague-Dawley, Indianapolis, Ind.) weighing between 28-35 g in groups of 12 for at least three days prior to testing in a vivarium with a 12 h light/dark cycle. Conduct experiments during the light cycle in an experimental room with normal overhead fluorescent lighting. Dose mice with vehicle or test compound and after a specified pretreatment interval (generally 30 min.), place the mice individually in a 17×28×12 cm high plastic tub with about 5 mm sawdust shavings on the floor along with a pre-weighed multi-ply gauze pad (51 mm square). After 30 min., weigh the remainder of the gauze pad not removed by the mouse. Determine the weight of the gauze used for nestlet construction by subtraction. Compare the results for test compound treated mice to the results for vehicle control treated mice with Dunnett's test.
Clinically effective OCD treatment standard compounds suppress nestlet shredding at doses that are devoid of motor-impairing effects as measured by the rotorod test. […]

[3] = system: male NIH Swiss mice; details: compounds used to treat OCD, literature; cited from earlier work
[4] = system: Wistar rats; details: clinically effective OCD treatment standard compounds; cited from earlier work
[5] = system: male NIH Swiss mice; assay: Marble burying assay (with rotorod); assay type: in vivo, mouse; details: marbles buried in 30 min, rotorod for motor impairment
From the text: Marble burying in mice has been used to model anxiety disorders including obsessive-compulsive disorders (OCD) due to ethological study of the behavior (e.g. Gyertyan I. “Analysis of the marble burying response: Marbles serve to measure digging rather than evoke burying”, Behavioural Pharmacology 6: 24-31, (1995)) and due to the pharmacological effects of clinical standards (c.f., Njung'E K. Handley S L. “Evaluation of marble-burying behavior as a model of anxiety”, Pharmacology, Biochemistry & Behavior. 38: 63-67, (1991)); Borsini F., Podhorna J., and Marazziti, D. “Do animal models of anxiety predict anxiolytic effects of antidepressants?”, Psychopharmacology 163: 121-141, (2002)).
House experimentally-naïve male, NIH Swiss mice (Harlan Sprague-Dawley, Indianapolis, Ind.) weighing between 28-35 g in groups of 12 for at least three days prior to testing in a vivarium with 12 h light and dark cycles. Conduct experiments during the light cycle in a dimly lit experimental testing room. Dose mice with vehicle or test compound and, after a specified pretreatment interval (generally 30 min.), place each mouse individually on a rotorod (Ugo Basile 7650) operating at a speed of 6 revolutions/min. and observe for falling. […]
Clinically effective standard compounds suppress marble burying at doses that are devoid of motor-impairing effects as measured on the rotorod. […]

C[C@H](N)Cc1ccccc1 [d-amphetamine]
Effect on schedule-induced polydipsia with co-administered 5-HT2C antagonist ([1]; co-administration of the 5-HT2C receptor antagonist): not prevented by the 5HT2C receptor antagonist
Schedule-induced polydipsia (water consumption) ([1]; food-restricted rats, 90 min session): decreases excessive drinking only at behaviorally stimulating doses
Nestlet shredding [2]: decreases nestlet shredding only at doses that produce motoric side effects

CNCCC(Oc1ccc(C(F)(F)F)cc1)c1ccccc1 (stereo not shown) [fluoxetine]
Marble burying (clinical standards) [3]: decrease burying
Schedule-induced polydipsia (clinical standards) [4]: suppress schedule-induced polydipsia without producing notable changes in motor patterns, food intake, or behavior the following day

CN(C)CCCN1c2ccccc2CCc2ccc(Cl)cc21 [chlomipramine]
Schedule-induced polydipsia (clinical standards) [4]: suppress schedule-induced polydipsia without producing notable changes in motor patterns, food intake, or behavior the following day

CN(C)CCCN1c2ccccc2Sc2ccc(Cl)cc21 [chlorpromazine]
Marble burying [5]: decrease marble burying only at doses that also disrupt rotorod performance
